We go through 21 substances from patent US8003595B2, “Amino acid sequences facilitating penetration of a substance of interest into cells and/or cell nuclei” (Cellectis, priority 2000, dated 2011).

Where two headings read alike, the source gives them in different places. Marks after values point to notes of the source that are not given here.

Test [1] in a line: ELISA fixation of biotinylated peptides on sensitized plates. The format is binding. As to conditions: for EC50: ELISA plates sensitized with heparin, Table 4, read-out: avidity: quantity of peptides necessary to obtain 50% fixation, Heparin; for Kd: read-out: avidity (Kd), quantity of peptides necessary to obtain 50% fixation, Heparin. Here is the method:
(§1) The capacity of peptides SEQ ID NO: 1 to 21 to attach themselves to DNA and heparin is evaluated on ELISA plates sensitized with DNA or heparin. Dilutions of biotinylated peptides are deposited on the plates and their fixation is shown using streptavidin conjugated with peroxidase. […] The avidity of each of the peptides for DNA or heparin is evaluated by the quantity (×10^−6 M) of peptides necessary to obtain 50% fixation.
On the technique in general: An ELISA detects its analyte on a solid surface through an enzyme-linked reagent.

The subject of a further test is DNA. Described as above. As to conditions: ELISA plates sensitized with DNA; read-out: avidity: quantity of peptides necessary to obtain 50% fixation, DNA. The format is binding. On the procedure: as §1
Assay in test [2]: as above
As to conditions: for EC50: Table 4, read-out: avidity: quantity of peptides necessary to obtain 50% fixation, Chondroitin A; for Kd: read-out: avidity (Kd), quantity of peptides necessary to obtain 50% fixation, Chondroitin A, Table 5. The format is binding.

Assay in test [3]: as above
The format is binding. As to conditions: for EC50: Table 4, read-out: avidity: quantity of peptides necessary to obtain 50% fixation, Chondroitin B; for Kd: read-out: avidity (Kd), quantity of peptides necessary to obtain 50% fixation, Chondroitin B, Table 5.

Assay in test [4]: as above
The format is binding. As to conditions: for EC50: Table 4, read-out: avidity: quantity of peptides necessary to obtain 50% fixation, Chondroitin C; for Kd: read-out: avidity (Kd), quantity of peptides necessary to obtain 50% fixation, Chondroitin C, Table 5.

Test [5] relates to H1299 cells. Description: Internalization of biotinylated peptide/S-PO complexes. The format is cell-based, human. On the procedure: A biotinylated/S-PO peptide or biotinylated/A-PO complex (A-PO for avidin-peroxidase) is prepared extemporaneously in two ways:
1) either in a peptide: S-PO or A-PO molar ratio of 4:1 (for example, 1.4 μg of peptide with a molecular weight of 3500 to 10 μg of S-PO; the weight of S-PO used varies depending on the peptides since their molecular weights are different).
2) or in a peptide: S-PO or A-PO molar ratio of 25:1 (for example 1.7 μg of peptide with a molecular weight of 3500 to 1 μg of S-PO).
The complexes are prepared by incubating the biotinylated peptide with S-PO or A-PO in PBS in a volume of 5 to 10 μl for 15 minutes at laboratory temperature. They are then diluted in 1 ml of complete culture medium, filtered on a 0.2 micron membrane and incubated with the cells for 4 hours. The cells are then washed three times with PBS.
To study the penetration of the complexes under a microscope, the cells are fixed as before for 15 minutes in ethanol at −20° C., they are washed with PBS, and the activity of the internalized peroxidase is shown by diaminobenzidine in the presence of H2O2. To measure the quantity of peptide/S-PO or A-PO complexes internalized, the cells are trypsinized, transferred into microtubes and counted. They are washed twice by centrifugation, then the residue is suspended in 200 μl of lysis buffer (Tris buffer, 0.1 M, pH8, 0.5% Nonidet). After 15 minutes, the peroxidase contained in the lysis buffer is dosed onto 96-well plates with ortho-dianisidine and H2O2 by comparison with a standard curve for S-PO. The reading is taken at 450 nm. The quantity contained in the different samples is expressed in picograms (pg) per 10^4 cells.
Table 7 below reports the results of evaluating the influence of SEQ ID NO: 1 on the penetration of peptides coupled to SEQ ID NO: 1 into H1299 cells, where
Concentration a: 25 peptides to one molecule of S-PO (1 μg),
Concentration b: 4 peptides to one molecule of S-PO (10 μg).

Test [6] relates to H1299 cells. Description: Internalization of covalent peptide-peroxidase conjugates. The format is cell-based, human. As to conditions: for quantity of peptide internalized: 2 hours. Here is the method:
To evaluate more directly the penetration of the peptides, avoiding the avidin-peroxidase bias, some of the peptides in sequences SEQ ID NO: 25 to 48 were conjugated covalently with cysteine in the C-terminal position of the peptide to peroxidase. The peptides were coupled with peroxidase in the following way:
One mg of peroxidase activated with maleimide (Sigma) in 100 μl of sodium phosphate buffer, NaCl 0.15 M, EDTA 5 mM, had 1 mg of peptide added to it. After 2 hours at laboratory temperature, β-mercaptoethanol is added to a final concentration of 1.5 mM for 15 minutes. The uncoupled peptide is eliminated by centrifugation on ultrafiltration membranes (cut-off threshold=30,000 Daltons, Sartorius), followed by three washings in sodium phosphate buffer 0.1 M, pH 7.4 containing 0.15 M NaCl.
The H1299 cells are incubated for 2 hours with the conjugates at increasing concentrations of peptide-peroxidase in the culture medium, then washed with PBS. The cells are lysed and the quantity of peptide internalized is evaluated by the dosage of peroxidase in the lysate of the cells with reference to a curve established with peptide-peroxidase.
The quantity of peptide internalized (pg/10^3 cells), depending on the concentrations of conjugates in the culture medium, is shown in Table 8 below.
It appears that the higher the concentration of peptide-peroxidase conjugate in the culture medium, the more the quantity internalized increases. To compare the penetration of the conjugates by cell type, the cells from different lines were incubated with 0.2 μg/ml of peptide-peroxidase conjugate for 2 hours, and the quantity of peroxidase dosed in the lysates. Table 9 and Table 9B below give the results expressed in pg/10^3 cells. The quantity of each peptide internalized in the different lines generally varies only from single to double.

The mark [7] stands for this setting: Conc. a: 25 peptides to one molecule of S-PO (1 μg).
The mark [8] stands for this setting: Conc. b: 4 peptides to one molecule of S-PO (10 μg).

On to VRRSGRVVVPAAPRNRD [compound 8], for which the EC50 (in test [1]; in the test with DNA; in test [2]; in test [3]; in test [4]) was above 150000 nM each time.
Take RQKYNKRAMDY [compound 4]: the EC50 in test [1] came out at 5000 nM; in the test on DNA it was 4000 nM; in test [2], 5600 nM; in test [3] it was 6200 nM; in test [4] it was 5000 nM.
As to KSRK [compound 18], the EC50 in test [1] is above 134 nM; in the test with DNA, above 134000 nM; in test [2] it was above 134000 nM; in test [3], above 134000 nM; in test [4] it was above 134000 nM.
Take VKRGLKLVRRSGRVVVPAAPRNRD [compound 9]: the EC50 in test [1] is 3700 nM; in the test on DNA, 3700 nM; in test [2], 17 nM; in test [3] it was 500 nM; in test [4], above 8000 nM.
Regarding VKRGLKL [compound 1], the EC50 (in test [1]; in the test with DNA; in test [2]; in test [3]; in test [4]) was above 100000 nM in each case.
Take VKRGLKLRQKYNKRAMDY [compound 5]: the EC50 in test [1] is 110 nM; with DNA, 110 nM; in test [2], 130 nM; in test [3] it was 110 nM; in test [4], 110 nM.
On to TYYSDTVKGRFTRQKYNKRA [compound 6], for which the EC50 in test [1] was 160 nM; in the test with DNA it was 190 nM; in test [2], 240 nM; in test [3], 250 nM; in test [4] it was 220 nM.
With VKRGLKLVKRGLKL [compound 2], the EC50 in test [1] was found to be 760 nM; in the test with DNA, 2200 nM; in test [2], 550 nM; in test [3] it was 600 nM; in test [4] it was 550 nM.
“SEQ ID NO: 15: twice the CDR3 region peptide of anti-DNA human monoclonal antibody NE-1 (RGVRPRVTRMDVRHVRPRVTRMDV; listed as Homo sapiens)”: the S-PO internalized in the test with H1299 cells [5] (setting [7]) came out at 250 pg/10^4 cells; in the test on H1299 cells [5] (setting [8]) it was 6670 pg/10^4 cells.
In the case of GRPRESGKKRKRKRLKP [compound 21], the EC50 in test [1] was 70 nM; in the test with DNA, 200 nM; in test [2], 120 nM; in test [3], 120 nM; in test [4], 120 nM.
With LRKRLLRD [compound 17], the EC50 (in test [1]; with DNA; in test [2]; in test [3]; in test [4]) was above 150000 nM in each case.
In the case of RGVRPRVTRMDVRHVRPRVTRMDV [compound 15], the EC50 in test [1] was above 30000 nM; in the test on DNA, 3000 nM; in test [2], 200 nM; in test [3], 4000 nM; in test [4], 5000 nM.
For RKGFYKRKQCKP [compound 20], in that order: 70 nM, 90 nM, 60 nM, 40 nM and 100 nM.
On to LRRERQSRLRRERSQSR [SEQ ID NO: 39], for which the Kd in test [1] (Table 5), in test [2], in test [3] and in test [4] was 100 nM each time.
On to VKRGLKLVKRGLKLVKRGLKL [compound 3], for which the EC50 in test [1] stood at 41 nM; in the test on DNA, 50 nM; in test [2], 37 nM; in test [3], 41 nM; in test [4], 35 nM.
For the substance VKRGLKLTYYSDTVKGRFTRQYNKRA [compound 7], the EC50 was determined as 50 nM in test [1]; 50 nM in the test on DNA; 60 nM in test [2]; 40 nM in test [3]; 60 nM in test [4].
KSRKKSRK [compound 19]: the EC50 (in test [1]; in the test on DNA; in test [2]; in test [3]; in test [4]) was above 74000 nM each time.
For the substance RKKRRRGDRKKRRRGD [SEQ ID NO: 28], the “avidity (Kd), quantity of peptides necessary to obtain 50% fixation, Heparin” value in test [1] (Table 5) is “lost its affinity for heparin”. For the same substance, in test [1] (Table 5), the Kd was 407 nM. For the same substance, the “percentage of quantity of peroxidase internalized compared to quantity deposited” value in the test with H1299 cells [6] (0.01 μg/ml) is recorded as “(0.006)* %”; in the test on H1299 cells [6] (0.1 μg/ml), “(1.6) %”; in the test on H1299 cells [6] (0.5 μg/ml), “(7.6) %”; with H1299 cells [6] (1 μg/ml), “(8.8) %”. The “quantity of peptide internalized” value is recorded as 0.006 pg/10^3 cells in the test with H1299 cells [6] (peptide-peroxidase 0.01 μg/ml), 1.7 pg/10^3 cells in the test with H1299 cells [6] (peptide-peroxidase 0.1 μg/ml), 37.9 pg/10^3 cells in the test with H1299 cells [6] (peptide-peroxidase 0.5 μg/ml) and 8860 pg/10^3 cells in the test on H1299 cells [6] (peptide-peroxidase 1 μg/ml).
In the case of “RHVRPRVTRMDVVKRGLKLRHVRPRVTRMDV [compound 16]”, the EC50 in test [1] is 24 nM; in the test on DNA, 19 nM; in test [2], 12 nM; in test [3], 9 nM; in test [4] it was 2 nM.
RKGFYKRKQCKP [SEQ ID NO: 20]: the Kd in test [1] (Table 5) is 70 nM; in test [2] it was 60 nM; in test [3], 40 nM; in test [4], 100 nM. The substance further displayed a S-PO internalized with H1299 cells [5] (peptide: S-PO complexes of 4:1, peptide concentration of 1 μg) of 431 pg/10^4 cells.
As to “SEQ ID NO: 16: inclusion, in position 13-19, of SEQ ID NO: 1 in SEQ ID NO: 15 (RHVRPRVTRMDVVKRGLKLRHVRPRVTRMDV; listed as Homo sapiens)”, the S-PO internalized stood at 430 pg/10^4 cells in the test with H1299 cells [5] (setting [7]) and 5220 pg/10^4 cells in the test with H1299 cells [5] (setting [8]).
